In the supplement of paper PMC10307832:

Experiments:
Assay in all cases: relative viability (nuclei count vs DMSO), 5 days (fraction); higher = more cells survive
Elesclomol + Navitoclax = compound: CN(NC(=O)CC(=O)NN(C)C(=S)c1ccccc1)C(=S)c1ccccc1 [Elesclomol] + CC1(C)CCC(c2ccc(Cl)cc2)=C(CN2CCN(c3ccc(C(=O)NS(=O)(=O)c4ccc(N[C@H](CCN5CCOCC5)CSc5ccccc5)c(S(=O)(=O)C(F)(F)F)c4)cc3)CC2)C1 [Navitoclax] (partner 0.5 µM)
In short: (§1)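 Values are medians from duplicate plates. Each reflects relative viability, defined as the nuclei count of treated wells over that of vehicle wells. Lung cancer cell lines in 1536-well plates were pin-tool dosed one day after seeding with one drug alone or with a fixed anchor-drug dose plus five library-drug doses (not always all listed) in √10 steps, then fixed, stained and imaged at 4× after 5 days.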

Elesclomol + Tozasertib = compound: CN(NC(=O)CC(=O)NN(C)C(=S)c1ccccc1)C(=S)c1ccccc1 [Elesclomol] + Cc1cc(Nc2cc(N3CCN(C)CC3)nc(Sc3ccc(NC(=O)C4CC4)cc3)n2)n[nH]1 [Tozasertib] (partner 0.1 µM)
In short: as §1

Elesclomol + Dasatinib = compound: CN(NC(=O)CC(=O)NN(C)C(=S)c1ccccc1)C(=S)c1ccccc1 [Elesclomol] + Cc1nc(Nc2ncc(C(=O)Nc3c(C)cccc3Cl)s2)cc(N2CCN(CCO)CC2)n1 [Dasatinib] (partner 0.075 µM)
In short: as §1

Elesclomol + Decitabine = compound: CN(NC(=O)CC(=O)NN(C)C(=S)c1ccccc1)C(=S)c1ccccc1 [Elesclomol] + Nc1ncn([C@H]2C[C@H](O)[C@@H](CO)O2)c(=O)n1 [Decitabine] (partner 2 µM)
In short: as §1

Elesclomol + Foretinib = compound: CN(NC(=O)CC(=O)NN(C)C(=S)c1ccccc1)C(=S)c1ccccc1 [Elesclomol] + COc1cc2c(Oc3ccc(NC(=O)C4(C(=O)Nc5ccc(F)cc5)CC4)cc3F)ccnc2cc1OCCCN1CCOCC1 [Foretinib] (partner 0.25 µM)
In short: as §1

Row | Cell Line | relative viability (Elesclomol + Navitoclax; first compound 0.003162 µM) | relative viability (Elesclomol + Navitoclax; first compound 0.01 µM) | relative viability (Elesclomol + Navitoclax; first compound 0.03162 µM) | relative viability (Elesclomol + Navitoclax; first compound 0.1 µM) | relative viability (Elesclomol + Tozasertib; first compound 0.003162 µM) | relative viability (Elesclomol + Tozasertib; first compound 0.01 µM) | relative viability (Elesclomol + Tozasertib; first compound 0.03162 µM) | relative viability (Elesclomol + Tozasertib; first compound 0.1 µM) | relative viability (Elesclomol + Dasatinib; first compound 0.003162 µM) | relative viability (Elesclomol + Dasatinib; first compound 0.01 µM) | relative viability (Elesclomol + Dasatinib; first compound 0.03162 µM) | relative viability (Elesclomol + Dasatinib; first compound 0.1 µM) | relative viability (Elesclomol + Decitabine; first compound 0.003162 µM) | relative viability (Elesclomol + Decitabine; first compound 0.01 µM) | relative viability (Elesclomol + Decitabine; first compound 0.03162 µM) | relative viability (Elesclomol + Decitabine; first compound 0.1 µM) | relative viability (Elesclomol + Foretinib; first compound 0.003162 µM) | relative viability (Elesclomol + Foretinib; first compound 0.01 µM) | relative viability (Elesclomol + Foretinib; first compound 0.03162 µM) | relative viability (Elesclomol + Foretinib; first compound 0.1 µM)
1 | NCI-H1666 | 0.825 | 0.299 | 0.227 | 0.15 | 0.579 | 0.457 | 0.375 | 0.403 | 0.9 | 0.585 | 0.412 | 0.378 | 0.739 | 0.717 | 0.522 | 0.47 | 1.06 | 0.88 | 0.621 | 0.509
2 | NCI-H1734 | 0.852 | 0.841 | 0.636 | 0.0859 | 0.276 | 0.24 | 0.126 | 0.0951 | 0.473 | 0.421 | 0.144 | 0.113 | 0.483 | 0.445 | 0.188 | 0.101 | 0.882 | 0.679 | 0.221 | 0.126
3 | NCI-H1755 | 0.968 | 0.847 | 0.82 | 0.158 | 0.625 | 0.47 | 0.421 | 0.288 | 0.446 | 0.357 | 0.433 | 0.214 | 0.704 | 0.808 | 0.689 | 0.598 | 0.935 | 0.887 | 0.922 | 0.474
4 | NCI-H1793 | 0.349 | 0.349 | 0.382 | 0.135 | 0.356 | 0.286 | 0.348 | 0.132 | 0.358 | 0.268 | 0.373 | 0.136 | 0.44 | 0.387 | 0.454 | 0.126 | 0.613 | 0.618 | 0.658 | 0.193
5 | NCI-H1915 | 0.784 | – | 0.792 | 0.799 | 0.412 | – | 0.397 | 0.258 | 0.337 | – | 0.317 | 0.21 | 0.254 | 0.265 | 0.277 | 0.205 | 1.05 | – | 1.08 | 0.793
6 | NCI-H1944 | 1.14 | 1.11 | 1.01 | 0.904 | 0.236 | 0.251 | 0.23 | 0.139 | 0.223 | 0.205 | 0.229 | 0.155 | 0.441 | 0.498 | 0.401 | 0.253 | 0.93 | 0.868 | 0.838 | 0.358
7 | NCI-H1975 | 1 | 1.1 | 0.209 | 0.12 | 0.733 | 0.517 | 0.118 | 0.0791 | 0.344 | 0.223 | 0.163 | 0.0599 | 0.387 | 0.386 | 0.308 | 0.189 | 0.943 | 0.832 | 0.311 | 0.164
8 | NCI-H1993 | 0.934 | 1.19 | 0.63 | 0.508 | 0.568 | 0.491 | 0.452 | 0.401 | 0.577 | 0.508 | 0.494 | 0.453 | 0.613 | 0.505 | 0.477 | 0.389 | 0.772 | 0.671 | 0.553 | 0.533
9 | NCI-H2009 | 1.17 | 0.567 | 0.277 | 0.11 | 0.684 | 0.219 | 0.112 | 0.0954 | 0.263 | 0.126 | 0.112 | 0.0747 | 0.425 | 0.245 | 0.173 | 0.118 | 1.2 | 0.97 | 0.207 | 0.171
10 | NCI-H2023 | 0.99 | 0.455 | 0.111 | 0.102 | 0.282 | 0.192 | 0.0576 | 0.0475 | 0.421 | 0.117 | 0.0528 | 0.0413 | 0.219 | 0.181 | 0.0903 | 0.0614 | 0.67 | 0.565 | 0.0376 | 0.051
11 | NCI-H2085 | 1.22 | 0.725 | 0.657 | 0.312 | 0.76 | 0.703 | 0.529 | 0.457 | 0.242 | 0.235 | 0.273 | 0.235 | 0.561 | 0.449 | 0.355 | 0.297 | 1.09 | 0.658 | 0.462 | 0.271
12 | NCI-H2087 | 0.924 | 0.728 | 0.499 | 0.469 | 0.18 | 0.187 | 0.158 | 0.0781 | 0.815 | 0.502 | 0.41 | 0.152 | 0.379 | 0.226 | 0.175 | 0.082 | 0.936 | 0.767 | 0.577 | 0.299
13 | NCI-H2126 | 0.89 | 0.826 | 0.908 | 0.827 | 0.792 | 0.751 | 0.359 | 0.337 | 0.659 | 0.512 | 0.3 | 0.215 | 0.538 | 0.616 | 0.558 | 0.593 | 1.19 | 0.943 | 0.435 | 0.201
14 | NCI-H2170 | 0.628 | 0.475 | 0.493 | 0.245 | 0.715 | 0.641 | 0.703 | 0.491 | 0.546 | 0.539 | 0.484 | 0.43 | 0.461 | 0.48 | 0.48 | 0.38 | 1.02 | 1.03 | 0.977 | 0.764
15 | NCI-H2347 | 0.809 | 0.668 | 0.905 | 0.299 | 0.683 | 0.424 | 0.264 | 0.248 | 0.29 | 0.373 | 0.287 | 0.185 | 0.662 | 0.56 | 0.534 | 0.475 | 1.06 | 0.701 | 0.482 | 0.942
16 | NCI-H2405 | 0.619 | 0.178 | 0.137 | 0.132 | 0.691 | 0.47 | 0.292 | 0.315 | 0.227 | 0.231 | 0.222 | 0.203 | 0.775 | 0.643 | 0.336 | 0.324 | 1.04 | 0.663 | 0.336 | 0.292
17 | NCI-H3122 | 1.05 | 1.03 | 1.01 | 0.247 | 0.329 | 0.118 | 0.0927 | 0.0898 | 0.836 | 0.947 | 0.587 | 0.0775 | 0.415 | 0.455 | 0.397 | 0.0861 | 1.01 | 0.961 | 0.839 | 0.135
18 | PC-3 [JPC-3] | 0.866 | 0.682 | 0.794 | 0.7 | 0.913 | 0.783 | 0.941 | 0.569 | 0.913 | 0.914 | 1.05 | 0.647 | 0.877 | 0.656 | 0.487 | 0.524 | 0.996 | 1.02 | 1.17 | 0.559
19 | PC-14 | 0.977 | 0.719 | 0.0635 | 0.0562 | 0.502 | 0.0652 | 0.0256 | 0.0175 | 0.0703 | 0.0327 | 0.0099 | 0.0111 | 0.126 | 0.0523 | 0.0385 | 0.0283 | 1.02 | 0.827 | 0.484 | 0.0715
20 | RERF-LC-KJ | 0.47 | 0.288 | 0.293 | 0.191 | 0.264 | 0.239 | 0.208 | 0.116 | 0.37 | 0.326 | 0.255 | 0.157 | 0.414 | 0.288 | 0.297 | 0.222 | 0.858 | 0.812 | 0.522 | 0.323
21 | SK-LU-1 | 1.08 | 0.704 | 0.167 | 0.172 | 0.336 | 0.271 | 0.238 | 0.15 | 0.199 | 0.197 | 0.161 | 0.0738 | 0.679 | 0.575 | 0.481 | 0.468 | 0.803 | 0.668 | 0.459 | 0.193
22 | SK-MES-1 | 1.28 | 0.97 | 1.03 | 0.385 | 0.842 | 0.791 | 0.318 | 0.479 | 0.413 | 0.25 | 0.187 | 0.148 | 0.425 | 0.306 | 0.213 | 0.172 | 0.87 | 0.502 | 0.859 | 0.854
23 | SW 1573 | 0.918 | 0.102 | 0.0652 | 0.0513 | 0.133 | 0.119 | 0.0792 | 0.0199 | 0.192 | 0.094 | 0.043 | 0.0143 | 0.173 | 0.111 | 0.0529 | 0.0067 | 0.769 | 0.65 | 0.165 | 0.0891
24 | UMC-11 | 0.277 | 0.311 | 0.22 | 0.143 | 0.205 | 0.199 | 0.185 | 0.168 | 0.439 | 0.423 | 0.374 | 0.235 | 0.674 | 0.582 | 0.276 | 0.359 | 1.01 | 0.91 | 0.789 | 0.482
